# Laboratory results as given in patent US20220289753A1, “SHP2 INHIBITORS” (IRBM S.P.A., priority 2019, published 2022).
# Target: T1, SHP-2 enzyme (Met1-Leu525) (Homo sapiens, UniProt Q06124)
# T1 construct: synthetized by Origene, Met1-Leu525, cat #TP750155; purchased Origene TP750155
# T1 sequence (Q06124 1-525): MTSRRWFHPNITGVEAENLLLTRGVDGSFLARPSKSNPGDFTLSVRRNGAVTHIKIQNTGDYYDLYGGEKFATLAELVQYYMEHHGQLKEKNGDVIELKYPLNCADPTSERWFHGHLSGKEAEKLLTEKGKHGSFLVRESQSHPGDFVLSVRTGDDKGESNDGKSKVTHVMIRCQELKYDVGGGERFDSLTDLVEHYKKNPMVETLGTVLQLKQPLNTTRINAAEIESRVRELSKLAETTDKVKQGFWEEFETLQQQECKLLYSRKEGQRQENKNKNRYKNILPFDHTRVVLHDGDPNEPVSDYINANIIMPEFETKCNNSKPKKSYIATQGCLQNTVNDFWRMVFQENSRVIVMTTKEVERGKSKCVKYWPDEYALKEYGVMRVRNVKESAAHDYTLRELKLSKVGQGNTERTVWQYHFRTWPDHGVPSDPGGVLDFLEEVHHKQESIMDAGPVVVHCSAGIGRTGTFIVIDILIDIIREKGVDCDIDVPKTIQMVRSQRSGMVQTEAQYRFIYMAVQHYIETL
# Test: SHP2 inhibition enzymatic assay (DiFMUP substrate, IRS1 peptide activation)
# Format: biochemical
# Conditions: SHP2 wt; activated by 500 nM IRS1 peptide; 75 μM DiFMUP substrate
# Description: SHP2 Inhibition Enzymatic Assay
# Assay volume of 20 μL/well was assembled in 384 well black polystyrene low-binding microplates (Greiner), using the following buffer: 60 mM HEPES pH 7.2, 75 mM NaCl, 75 mM KCl, 1 mM EDTA pH 8, 0.05% tween-20, 5 mM DTT. The SHP-2 enzyme (synthetized by Origene, Met1-Leu525, cat #TP750155) was used at a final concentration of 0.5 nM.
# Briefly, DMSO serially diluted testing compounds were transferred to the bottom of the assay plate. SHP2 was then added together with the IRS1 peptide. 30 minutes post incubation, the DiFMUP substrate was added to the reaction and incubated 30 min at room temperature. […] The fluorescence was detected by a microplate reader (Envision, PerkinElmer) according to the DiFMUP excitation and emission wavelength. The lower the fluorescence the higher the SHP2 inhibition.
# The percentage inhibition is fitted against the compound dilutions with a four-parameter logistic regression. The inflection point (i.e. the concentration at which half-maximal inhibition is achieved) is the IC50.
row,IC50 [µM],Compound
1,< 0.5,"CC1(N)CCN(c2nc3nc(Sc4ccc(C#N)cc4C(F)(F)F)cnc3[nH]2)CC1 [Example 19, 4-((2-(4-amino-4-methylpiperidin-1-yl)-1H-imidazo[4,5-b]pyrazin-5-yl)thio)-3-(trifluoromethyl)benzonitrile]"
2,> 3,"CC(C)(CNc1nc2nc(Sc3cccnc3C(F)(F)F)cnc2[nH]1)Cc1cccnc1 [Example 113, N-(2,2-dimethyl-3-(pyridin-3-yl)propyl)-5-((2-(trifluoromethyl)pyridin-3-yl)thio)-1H-imidazo[4,5-b]pyrazin-2-amine]"
3,0.5 to 3,"FC(F)(F)c1ncccc1Sc1cnc2[nH]c(NCCc3cn4ccccc4n3)nc2n1 [Example 43, N-(2-(imidazo[1,2-a]pyridin-2-yl)ethyl)-5-((2-(trifluoromethyl)pyridin-3-yl)thio)-1H-imidazo[4,5-b]pyrazin-2-amine]"
4,0.5 to 3,"CC1(N)CCN(c2nc3nc(Sc4cccc(S(F)(F)(F)(F)F)c4)cnc3[nH]2)CC1 [Example 93, 4-methyl-1-(5-((3-(pentafluoro-l6-sulfaneyl)phenyl)thio)-1H-imidazo[4,5-b]pyrazin-2-yl)piperidin-4-amine]"
5,0.5 to 3,"CC1(N)CCN(c2nc3nc(Sc4cccc(C(F)(F)F)n4)cnc3[nH]2)CC1 [Example 47, 4-methyl-1-(5-((6-(trifluoromethyl)pyridin-2-yl)thio)-1H-imidazo[4,5-b]pyrazin-2-yl)piperidin-4-amine]"
6,> 3,"CC1(N)CCN(c2nc3ncc(Sc4ccc(C5(C#N)CCC5)cc4)nc3[nH]2)CC1 [Example 29, 1-(4-((2-(4-amino-4-methylpiperidin-1-yl)-1H-imidazo[4,5-b]pyrazin-6-yl)thio)phenyl)cyclobutane-1-carbonitrile]"
7,0.5 to 3,"CC1(N)CCN(c2nc3nc(Sc4cccnc4C(F)(F)F)cnc3s2)CC1 [Example 119, 4-methyl-1-(5-((2-(trifluoromethyl)pyridin-3-yl)thio)thiazolo[4,5-b]pyrazin-2-yl)piperidin-4-amine]"
8,< 0.5,"NC1CCCN(c2nc3nc(Sc4cccnc4C(F)(F)F)cnc3[nH]2)C1 (stereo not shown) [Example 33, 1-(5-((2-(trifluoromethyl)pyridin-3-yl)thio)-1H-imidazo[4,5-b]pyrazin-2-yl)piperidin-3-amine]"
9,0.5 to 3,"NCC1CN(c2nc3nc(Sc4cccnc4C(F)(F)F)cnc3[nH]2)C1 [Example 55, (1-(5-((2-(trifluoromethyl)pyridin-3-yl)thio)-1H-imidazo[4,5-b]pyrazin-2-yl)azetidin-3-yl)methanamine]"
10,< 0.5,"CC1(N)CCN(c2nc3nc(Sc4ccccc4C#N)cnc3[nH]2)CC1 [Example 23, 2-((2-(4-amino-4-methylpiperidin-1-yl)-1H-imidazo[4,5-b]pyrazin-5-yl)thio)benzonitrile]"
11,> 3,"CC1(N)CCN(c2nc3nc(Sc4ccccc4-c4nccs4)cnc3[nH]2)CC1 [Example 102, 4-methyl-1-(5-((2-(thiazol-2-yl)phenyl)thio)-1H-imidazo[4,5-b]pyrazin-2-yl)piperidin-4-amine]"
12,> 3,"Cn1nc(-c2ccc(Sc3cnc4[nH]c(N5CCC(C)(N)CC5)nc4n3)s2)cc1C(F)(F)F [Example 57, 4-methyl-1-(5-((5-(1-methyl-5-(trifluoromethyl)-1H-pyrazol-3-yl)thiophen-2-yl)thio)-1H-imidazo[4,5-b]pyrazin-2-yl)piperidin-4-amine]"
13,0.5 to 3,"CC(N)C1CN(c2nc3nc(Sc4cccnc4C(F)(F)F)cnc3[nH]2)CCO1 (stereo not shown) [Example 86, 1-(4-(5-((2-(trifluoromethyl)pyridin-3-yl)thio)-1H-imidazo[4,5-b]pyrazin-2-yl)morpholin-2-yl)ethan-1-amine]"
14,0.5 to 3,"CC(N)CCNc1nc2nc(Sc3cccnc3C(F)(F)F)cnc2[nH]1 (stereo not shown) [Example 54, N1-(5-((2-(trifluoromethyl)pyridin-3-yl)thio)-1H-imidazo[4,5-b]pyrazin-2-yl)butane-1,3-diamine]"
15,0.5 to 3,"CC1(N)CCN(c2nc3nc(Sc4cccc(F)c4F)cnc3[nH]2)CC1 [Example 21, 1-(5-((2,3-difluorophenyl)thio)-1H-imidazo[4,5-b]pyrazin-2-yl)-4-methylpiperidin-4-amine]"
16,> 3,"FC(F)(F)c1ncccc1Sc1cnc2[nH]c(NCC3CCNCC3)nc2n1 [Example 110, N-(piperidin-4-ylmethyl)-5-((2-(trifluoromethyl)pyridin-3-yl)thio)-1H-imidazo[4,5-b]pyrazin-2-amine]"

row,IC50 [µM],Compound
1,0.5 to 3,"CC1(N)CCN(c2nc3nc(Sc4ccnc5ncccc45)cnc3[nH]2)CC1 [Example 105, 1-(5-((1,8-naphthyridin-4-yl)thio)-1H-imidazo[4,5-b]pyrazin-2-yl)-4-methylpiperidin-4-amine]"
2,< 0.5,"CC1(N)CCN(c2nc3nc(Sc4cccc(C(=O)O)c4)cnc3[nH]2)CC1 [Example 94, 3-((2-(4-amino-4-methylpiperidin-1-yl)-1H-imidazo[4,5-b]pyrazin-5-yl)thio)benzoic acid]"
3,0.5 to 3,"CC1(N)CCN(c2nc3nc(Sc4ccncc4)cnc3[nH]2)CC1 [Example 80, 4-methyl-1-(5-(pyridin-4-ylthio)-1H-imidazo[4,5-b]pyrazin-2-yl)piperidin-4-amine]"
4,0.5 to 3,"CC1(N)CCN(c2nc3nc(Sc4cccc5ncncc45)cnc3[nH]2)CC1 [Example 100, 4-methyl-1-(5-(quinazolin-5-ylthio)-1H-imidazo[4,5-b]pyrazin-2-yl)piperidin-4-amine]"
5,< 0.5,"CC1(N)CCN(c2nc3nc(Sc4cccc(CC(=O)O)c4)cnc3[nH]2)CC1 [Example 103, 2-(3-((2-(4-amino-4-methylpiperidin-1-yl)-1H-imidazo[4,5-b]pyrazin-5-yl)thio)phenyl)acetic acid]"
6,< 0.5,"N[C@@H]1c2ccccc2CC12CCN(c1nc3nc(Sc4cccnc4C(F)(F)F)c(Cl)nc3[nH]1)CC2 [Example 118, (S)-1′-(6-chloro-5-((2-(trifluoromethyl)pyridin-3-yl)thio)-1H-imidazo[4,5-b]pyrazin-2-yl)-1,3-dihydrospiro[indene-2,4′-piperidin]-1-amine]"
7,0.5 to 3,"CC1(N)CCN(c2nc3ncc(Sc4csc5cnccc45)nc3[nH]2)CC1 [Example 9, 4-methyl-1-(6-(thieno[2,3-c]pyridin-3-ylthio)-1H-imidazo[4,5-b]pyrazin-2-yl)piperidin-4-amine]"
8,> 3,"CCn1c(N2CCC(C)(N)CC2)nc2ncc(Sc3cccnc3C(F)(F)F)nc21 [Example 72, 1-(1-ethyl-6-((2-(trifluoromethyl)pyridin-3-yl)thio)-1H-imidazo[4,5-b]pyrazin-2-yl)-4-methylpiperidin-4-amine]"
9,< 0.5,"CC1(N)CCN(c2nc3nc(Sc4ccsc4Cl)cnc3[nH]2)CC1 [Example 73, 1-(5-((2-chlorothiophen-3-yl)thio)-1H-imidazo[4,5-b]pyrazin-2-yl)-4-methylpiperidin-4-amine]"
10,0.5 to 3,"CC1(N)CCN(c2nc3ncc(Sc4cccnc4)nc3[nH]2)CC1 [Example 12, 4-methyl-1-(6-(pyridin-3-ylthio)-1H-imidazo[4,5-b]pyrazin-2-yl)piperidin-4-amine]"
11,> 3,"NC(=O)Cn1c(N2CCC3(CC2)Cc2ccccc2[C@H]3N)nc2nc(Sc3cccnc3C(F)(F)F)cnc21 [Example 137, (S)-2-(2-(1-amino-1,3-dihydrospiro[indene-2,4′-piperidin]-1′-yl)-5-((2-(trifluoromethyl)pyridin-3-yl)thio)-1H-imidazo[4,5-b]pyrazin-1-yl)acetamide]"
12,> 3,"FC(F)(F)c1ncccc1Sc1cnc2[nH]c(NCC3COCCN3)nc2n1 (stereo not shown) [Example 111, N-(morpholin-3-ylmethyl)-5-((2-(trifluoromethyl)pyridin-3-yl)thio)-1H-imidazo[4,5-b]pyrazin-2-amine]"
13,0.5 to 3,"FC(F)(F)c1ncccc1Sc1cnc2[nH]c(N3CCC(Cn4ccnc4)CC3)nc2n1 [Example 42, 2-(4-((1H-imidazol-1-yl)methyl)piperidin-1-yl)-5-((2-(trifluoromethyl)pyridin-3-yl)thio)-1H-imidazo[4,5-b]pyrazine]"
14,0.5 to 3,"FC(F)(F)c1ncccc1Sc1cnc2[nH]c(N3C[C@@H]4CC[C@H]3CN4)nc2n1 [Example 90, (1S,4S)-2-(5-((2-(trifluoromethyl)pyridin-3-yl)thio)-1H-imidazo[4,5-b]pyrazin-2-yl)-2,5-diazabicyclo[2.2.2]octane]"
15,0.5 to 3,"FC(F)(F)c1ncccc1Sc1cnc2[nH]c(N3CCC34CCNCC4)nc2n1 [Example 44, 2-(1,7-diazaspiro[3.5]nonan-1-yl)-5-((2-(trifluoromethyl)pyridin-3-yl)thio)-1H-imidazo[4,5-b]pyrazine]"
